Source: patent US20250327133A1, “USE OF SRE-PTPRZ1 INHIBITOR IN PREPARATION OF DRUG FOR TREATING SQUAMOUS CELL CARCINOMA” (WEST CHINA HOSPITAL, SICHUAN UNIVERSITY, priority 2022, published 2025)
pIC50: −log10 of the molar value. Blank lines part the entries; values can stand above or below the compound they belong to.

How the values were obtained:
[1] = test system: PTPRZ1 glioma cell line U251; assay: CCK8 cell proliferation, MY33-3, U251; format: cell-based; conditions: Homo sapiens, U-251, 72 hours
Description: (§1) The CCK8 method was used to detect the effect of PTPRZ1 inhibitor MY33-3 on cell proliferation. 7 strains of human Lung-LUSC cells, one strain of human lung adenocarcinoma cell, one strain of human normal lung epithelial cell BEAS-2B, and one strain of PTPRZ1 high expressing cell line U251 (high expression of PTPRZ1 gene in glioma cells) were used in this experiment for detection. Each cell line was inoculated into a 96-well plate at a density of 6000 cells/well, cultured for 24 hours, and then 100 μL of MY33-3 working solution was added to the test wells at final concentrations of 0 μM, 1 μM, 2 μM, 4 μM, 8 μM, 16 μM, 32 μM, and 64 μM, while 100 μL of medium was added to the blank control well. After 72 hours of drug treatment, 20 μL of CCK8 was added in proportion and incubated for 1 hour. The absorbance value was measured at 450 nm, and the IC50 values of MY33-3 against different cells were plotted.

[2] = test system: human Lung-LUSC cell lines; assay: CCK8 cell proliferation, MY33-3, Lung-LUSC cell lines; format: cell-based; conditions: 7 human Lung LUSC cell lines; 72 hours
Description: as §1

[3] = test system: human Lung-LUSC (H520) cells; assay: Subcutaneous tumor formation in nude mice (H520); format: in vivo, BALB/c-nu mice; conditions: for tumor size compared with the model group / tumor volume compared with the model group: after 21 days of administration
Description: At the animal level, the method of subcutaneous tumor formation in nude mice was used to verify the therapeutic effect of the inhibitor MY33-3 on the tumor formation of human Lung-LUSC (H520) cells. Firstly, 30 of 4W BALB/c-nu mice were purchased from GemPharmatech and acclimated for 3 days. Then, 150 μL of pre-prepared H520 cells was injected subcutaneously into the right forelimb of nude mice at 8×10^6 cells/mouse. After 7 days, the tumor growth of each nude mouse was observed, and the mice were grouped and received drugs when the tumor grew to 100 mm^3. Mice were divided into the blank group, the model group, the low-dose group, and the high-dose group, with 7 mice in each group. Meanwhile, the inhibitor MY33-3 was administered at doses of 20 mg/kg (low-dose group) and 100 mg/kg (high-dose group) once every 2 days, and the changes in tumor growth were recorded using a vernier caliper. Then, after 21 days of administration, samples were collected, and the therapeutic effect of the inhibitor MY33-3 on human Lung-LUSC cells was evaluated using indicators such as tumor volume, tumor weight, and nude mouse weight.

[4] = test system: human normal lung epithelial cell line BEAS-2B; assay: CCK8 cell proliferation, MY33-3, BEAS-2B; format: cell-based; conditions: 72 hours
Description: as §1

[5] = test system: human Lung LUAD cell line; assay: CCK8 cell proliferation, MY33-3, lung adenocarcinoma cell line; format: cell-based; conditions: one human Lung LUAD cell line; 72 hours
Description: as §1

[6] = test system: PTPRZ1 glioma cell line (U251); assay: CCK8 cell survival, MY-10, U251; format: cell-based; conditions: 0-8 μM, 72 hours
Description: (§2) The CCK8 method was used to detect the effect of the PTPRZ1 inhibitor MY-10 on cell proliferation. 3 human Lung-LUSC cells and one PTPRZ1 high expression cell line U251 (high expression of PTPRZ1 gene in glioma cells) were used in this experiment for detection. Each cell line was inoculated into a 96-well plate at a density of 5000 cells/well, cultured for 24 hours, and then 100 μL of MY-10 working solution was added at final concentrations of 0 μM, 1 μM, 2 μM, […], 6 μM, and […] to the test wells, while 100 μL of medium was added to the blank control well. After 72 hours of drug treatment, 20 μL of CCK8 was added in proportion, followed by incubating for 1 h. The absorbance value was measured at 450 nm, and the survival rates of MY-10 against different Lung-LUSC cells were plotted.

LK-2 = assay: CCK8 cell survival, MY-10, LK-2; format: cell-based, human; conditions: 0-8 μM, 72 hours
Description: as §2

H1703 = assay: CCK8 cell survival, MY-10, H1703; format: cell-based, human; conditions: 0-8 μM, 72 hours
Description: as §2

H520 cells = assay: CCK8 cell survival, MY-10, H520; format: cell-based, human; conditions: 72 hours
Description: as §2

[7] = test system: human normal lung epithelial cell BEAS-2B; assay: CCK8 cell growth inhibition by NAZ2329, BEAS-2B; format: cell-based; conditions: 5-70 μM, 72 hours
Description: (§3) The CCK8 method was used to detect the inhibition rate of PTPRZ1 inhibitor NAZ2329 on cell growth. 5 strains of human Lung-LUSC cells, one strain of human normal lung epithelial cell BEAS-2B, and one strain of highly expressed PTPRZ1 cell line U251 (High expression of PTPRZ1 gene in glioma cells) were used in this experiment for detection. Each cell line was inoculated into a 96-well plate at a density of 8000 cells/well, and cultured for 18 h. Then, 100 μL of NAZ2329 solution was added to the test wells at final concentrations of 5 μM, 10 μM, 20 μM, 30 μM, 40 μM, 50 μM, 60 μM, and 70 μM, while 100 μL of medium was added to the blank control well. After 72 hours of drug treatment, 20 μL of CCK8 was added in proportion and incubated for 2 h. The absorbance value was measured at 450 nm and the inhibition rate curve was plotted.

human Lung-LUSC cells = assay: CCK8 cell growth inhibition by NAZ2329, Lung-LUSC cells; format: cell-based; conditions: 5-70 μM, 72 hours
Description: as §3

glioma cell line U251 = assay: CCK8 cell growth inhibition by NAZ2329, U251; format: cell-based; conditions: 5-70 μM, 72 hours
Description: as §3

pIC50 [1]: 4.48 | weight of nude mice versus model group ([3]; high-dose group 100 mg/kg): no significant difference | weight of nude mice versus model group ([3]; low-dose group 20 mg/kg): no significant difference | pIC50 [5]: 4.60
Compound: FC(F)(F)Sc1ccc(CNCc2ccc(SC(F)(F)F)cc2)cc1 [MY33-3]
pIC50 [2]: > 4.80 | inhibitory effect on tumorigenicity of H520 cells ([3]; dose of 20 mg/kg): good inhibitory effect | tumor size compared with the model group ([3]; high-dose group 100 mg/kg once every 2 days): significantly decreased | tumor volume compared with the model group ([3]; high-dose group 100 mg/kg): more significantly decreased | tumor size compared with the model group ([3]; low-dose group 20 mg/kg once every 2 days): significantly decreased | tumor volume compared with the model group ([3]; low-dose group 20 mg/kg): more significantly decreased | pIC50 [4]: 4.55

Compound: FC(F)(F)Sc1ccc(CCCOc2ccc(SC(F)(F)F)cc2)cc1 [MY-10]
inhibitory effect with increasing concentrations [6]: significant inhibitory effects | inhibitory effect with increasing concentrations (LK-2): significant inhibitory effects | inhibitory effect with increasing concentrations (H1703): significant inhibitory effects | inhibitory effect with increasing concentrations (H520 cells; H520, 0-8 μM): significant inhibitory effects | pIC50 (H520 cells; Homo sapiens, NCI-H520, H520 cells, read-out: IC50 (survival rate)): ~5.40

Compound: CCOc1ccc(C(F)(F)F)cc1CSc1ccsc1C(=O)NS(=O)(=O)c1ccccc1 [NAZ2329]
cell growth with increasing treatment concentration [7]: inhibited | growth inhibition rate on cell growth (human Lung-LUSC cells; 4 strains of Lung-LUSC cells, compared with BEAS-2B and U251): significantly higher than that of human normal lung epithelial cells BEAS-2B and glioma cell line U251 | cell growth with increasing treatment concentration (human Lung-LUSC cells; Lung-LUSC cells): inhibited | cell growth with increasing treatment concentration (glioma cell line U251): inhibited
